PMC3082957 (ACS chemical neuroscience, 2011)

How the values were obtained:
Format in all cases: cell-based
[1] = system: voltage-gated Na+ channels in CAD cells
[2] = system: voltage-gated Na+ channels in CAD cells; details: for fraction of channels in a slow-inactivated state (1 minus the normalized INa): at −50 mV
[3] = system: voltage-gated Na+ channels in CAD cells; details: 100 µM
[4] = system: voltage-gated Na+ channels in CAD cells; experiment: Frequency; details: 100 µM; 30 pulses at 10 Hz, holding −80 mV
[5] = system: voltage-gated Na+ channels in CAD cells; experiment: Rate of development of inhibition/slow inactivation of Na+ currents in CAD cells; details: 100 µM; vehicle 0.51 ± 0.08
[6] = system: voltage-gated Na+ channels in CAD cells; remark: listed apart in the source
[7] = 30 µM, UV irradiation, then washed 5 min

COC[C@@H](NC(C)=O)C(=O)NCc1ccccc1 [(R)-1, (R)-N-benzyl 2-acetamido-3-methoxypropionamide]
reduction of peak inward Na+ current ([1]; 100 µM, CAD cells held at −80 mV, versus 0.1% DMSO): 40% | slow inactivation observed at potentials more depolarized than ([2]; 100 µM): > −80 mV | fraction of Na+ current available at −50 mV ([2]; 100 µM, 5 s conditioning prepulse): 0.35 ± 0.01 fractional units | maximal fraction of current unavailable by depolarization ([2]; 100 µM, 20 mV as printed, control 0.62 ± 0.03): 0.26 ± 0.01 | fraction of channels in a slow-inactivated state (1 minus the normalized INa) ([2]; 100 µM): 0.65 ± 0.08 | V1/2 of steady-state fast inactivation ([3]; DMSO control −67.5 ± 1.0 mV, not different (p > 0.05)): −69.5 ± 1.3 mV | peak current lower than control by the last pulse [4]: ~ 10% | fraction of current available at 8 s prepulse duration [5]: 0.31 ± 0.01 | recovery of current amplitude at −10 mV after wash compared with pre-drug values ([6]; 100 µM, 10 min, 5-min wash): 74% | effect on slow inactivation following the 5-min wash ([6]; 100 µM, 10 min at 37 °C, then 5-min wash, −50 mV): completely reversed

COC[C@@H](NC(C)=O)C(=O)NCc1ccc(C2(C(F)(F)F)N=N2)cc1 [(R)-7]
fraction of channels in a slow-inactivated state (1 minus the normalized INa) ([2]; 100 µM): 0.66 ± 0.05 | IC50 for slow inactivation, fold lower compared with (R)-1 ([2]; CAD cells, versus IC50 85 µM of (R)-1): 7.1 fold | slope (k) of fast inactivation curve, shallower than DMSO-treated cells ([3]; p<0.05): about 55% | Na+ channels remaining in a slow-inactivated state [6, 7]: about 10% | recovery of current amplitude at −10 mV compared with DMSO control or UV alone [6, 7]: 87% | Na+ channels accumulated in the slow-inactivated state ([6]; 30 µM, photoactivated 365 nm 8 min then 312 nm 1 min): about 35% | Na+ channels in the slow-inactivated state ([6]; 30 µM, without light): 65% | changes in steady-state activation or fast inactivation ([6]; pre-drug, drug, UV and washout conditions, (R)-5 40 µM, (R)-6 40 µM, (R)-7 30 µM): no changes

NC1=N[C@H](O)[C@H]2[C@H]3O[C@]4(O)O[C@@H]([C@@H](O)[C@@]2(N1)[C@@H]4O)[C@]3(O)CO [tetrodotoxin]
block of Na+ current [1]: almost all of the current was blocked
